In patent US9278163B2, “Implantable polymeric device for sustained release of dopamine agonist” (Titan Pharmaceuticals, Inc., priority 2003, dated 2016):
Counter-ions that a name gives are not always drawn.

Test system: MPTP-lesioned, L-DOPA-naïve cynomolgus monkeys
Test: In vivo evaluation of implants vs pulsatile subcutaneous injections ("ON" status, dyskinesia)

SMILES: CN1CCc2cccc3c2[C@H]1Cc1ccc(O)c(O)c1-3 [apomorphine, Apomorphine HCl]
- minimally-effective dose to achieve "ON" status (daily subcutaneous injection): 0.2 mg/kg
- time to development of dyskinesias (daily subcutaneous injections, 0.2 mg/kg, range 7-10): 8.3 days
- development of dyskinesia (duration of treatment up to six months for implants, daily injections 0.2 mg/kg): all animals in the pulsatile injection group developed dyskinesias
- duration of "ON" state after each administration (pulsatile daily subcutaneous injections, 0.2 mg/kg): approximately 90 minutes
